The values below come from paper PMC11258351, “PK/PD investigation of antiviral host matriptase/TMPRSS2 inhibitors in cell models” (Scientific Reports, 2024).

“And” between values parts separate entries of the source, which are not always exact repeats. Equal values may be shown once. “Also recorded” adds a separate entry of the source. Read-outs that look alike come from different tables or passages of the source.

Series [1] is described as follows: Prediction of in vivo human PK parameters from hepatocyte clearance. The format is in vitro ADME. Particulars: for Classification (extraction type) / Extraction ratio EH: predicted; for Predicted Cl, CLH: predicted from hepatocyte Clint, fu = 1.
The test system of series [2] is H9N2 IAV strain A/quail/Shantou/782/00. The format is cell-based, influenza A virus. Particulars: MDCK-II cells, 24 h.
Series [3] shares this test system. The format is cell-based, influenza A virus. The conditions noted are these: MDCK-II cells.
In series [4] the test system is A/Hamburg/5/09 (H1N1pdm). The format is cell-based, influenza A virus.
Series [5] relates to primary human hepatocytes. Kind of series: Cytotoxicity in primary human hepatocytes. The format is cell-based. The conditions noted are these: 50 µM, 24 h. On the procedure:
Supplementary Figure S1. Cytotoxicity of MI-463 and MI-1900 at 50 µM for 24 h in primary human hepatocytes. DMSO was applied as solvent control at 0.5% for 24 h.

Series [6] concerns the target T1, CYP1A2 (Homo sapiens, UniProt P05177).
T1 sequence (P05177 1-516): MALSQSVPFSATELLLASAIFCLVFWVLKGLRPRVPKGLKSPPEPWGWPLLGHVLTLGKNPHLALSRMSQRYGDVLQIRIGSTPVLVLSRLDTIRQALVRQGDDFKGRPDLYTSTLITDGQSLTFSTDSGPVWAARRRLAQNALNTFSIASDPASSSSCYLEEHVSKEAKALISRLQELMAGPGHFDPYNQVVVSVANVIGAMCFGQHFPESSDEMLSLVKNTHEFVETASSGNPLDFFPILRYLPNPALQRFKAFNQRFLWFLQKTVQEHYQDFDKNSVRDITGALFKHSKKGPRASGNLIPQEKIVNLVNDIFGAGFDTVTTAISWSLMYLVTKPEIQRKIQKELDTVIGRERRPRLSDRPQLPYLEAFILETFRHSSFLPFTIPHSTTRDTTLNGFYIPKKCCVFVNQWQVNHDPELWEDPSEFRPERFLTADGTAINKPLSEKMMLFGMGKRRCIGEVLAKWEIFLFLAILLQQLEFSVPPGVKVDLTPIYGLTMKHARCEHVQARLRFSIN
Details: method as in PMID 34915414. Particulars: earlier study; cited from earlier work.

Series [7] has as its target T2, CYP2C9 (Homo sapiens, UniProt P11712). Details: method as in PMID 34915414. The conditions noted are these: earlier study; cited from earlier work.
Series [8] deals with T3, CYP2C19 (Homo sapiens, UniProt P33261). Details: method as in PMID 34915414. The conditions noted are these: earlier study; cited from earlier work.
T3 sequence (P33261 whole entry): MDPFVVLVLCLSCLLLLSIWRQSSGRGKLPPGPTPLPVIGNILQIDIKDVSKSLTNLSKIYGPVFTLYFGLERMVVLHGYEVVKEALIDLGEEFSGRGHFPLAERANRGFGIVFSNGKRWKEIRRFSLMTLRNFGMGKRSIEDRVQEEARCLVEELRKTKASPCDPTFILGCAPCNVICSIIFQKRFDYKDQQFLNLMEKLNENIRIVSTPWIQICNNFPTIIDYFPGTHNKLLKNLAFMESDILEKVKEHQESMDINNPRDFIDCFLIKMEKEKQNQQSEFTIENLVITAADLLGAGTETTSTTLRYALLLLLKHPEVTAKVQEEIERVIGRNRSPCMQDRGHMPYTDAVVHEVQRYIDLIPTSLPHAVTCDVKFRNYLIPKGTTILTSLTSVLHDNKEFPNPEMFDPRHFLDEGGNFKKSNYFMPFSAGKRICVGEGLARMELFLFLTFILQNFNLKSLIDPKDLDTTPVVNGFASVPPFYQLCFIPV
The target of series [9] is T4, CYP2D6 (Homo sapiens, UniProt P10635). Details: method as in PMID 34915414. Particulars: earlier study; cited from earlier work.
T4 sequence (P10635 whole entry): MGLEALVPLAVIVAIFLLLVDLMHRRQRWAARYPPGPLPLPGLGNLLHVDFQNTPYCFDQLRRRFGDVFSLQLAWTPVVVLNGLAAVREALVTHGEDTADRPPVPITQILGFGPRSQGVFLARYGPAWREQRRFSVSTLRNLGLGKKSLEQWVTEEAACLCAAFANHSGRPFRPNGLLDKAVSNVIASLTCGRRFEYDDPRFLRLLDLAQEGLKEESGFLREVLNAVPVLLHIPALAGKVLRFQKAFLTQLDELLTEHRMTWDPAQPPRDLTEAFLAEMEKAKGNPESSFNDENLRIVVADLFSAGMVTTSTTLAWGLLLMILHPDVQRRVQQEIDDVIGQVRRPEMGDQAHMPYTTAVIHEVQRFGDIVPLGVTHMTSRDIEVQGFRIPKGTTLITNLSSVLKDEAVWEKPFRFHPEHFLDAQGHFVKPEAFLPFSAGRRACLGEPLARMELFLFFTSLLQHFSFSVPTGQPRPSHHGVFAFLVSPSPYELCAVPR
Series [10] has as its target matriptase. Details: method as in PMID 35635944. The conditions noted are these: cited from earlier work.
Series [11] addresses TMPRSS2. Details: method as in PMID 35635944. Particulars: cited from earlier work.
Series [12] deals with monkey CYP1A2. Details: method as in PMID 35448654. The conditions noted are these: cited from earlier work.
Series [13] concerns rat CYP1A2. Details: method as in PMID 35448654. Particulars: cited from earlier work.
Series [14] relates to beagle dog CYP1A2. Details: method as in PMID 35448654. The conditions noted are these: cited from earlier work.
Series [15] has as its system cynomolgus monkey hepatocytes. Details: method as in PMID 31391268. Particulars: cited from earlier work.
For series [16], the target named is CYP3A4 (Homo sapiens, UniProt P08684). Kind of series: Fluorometric CYP3A4 activity assay in human hepatic microsomes. Particulars: for Effect on CYP3A4 enzyme activity: human liver microsomes, 10, 25 and 50 µM; for Effect on CYP3A4 enzyme activity at the lowest applied concentration: human liver microsomes, lowest applied concentration (10 µM).
Sequence of CYP3A4 (P08684 whole entry): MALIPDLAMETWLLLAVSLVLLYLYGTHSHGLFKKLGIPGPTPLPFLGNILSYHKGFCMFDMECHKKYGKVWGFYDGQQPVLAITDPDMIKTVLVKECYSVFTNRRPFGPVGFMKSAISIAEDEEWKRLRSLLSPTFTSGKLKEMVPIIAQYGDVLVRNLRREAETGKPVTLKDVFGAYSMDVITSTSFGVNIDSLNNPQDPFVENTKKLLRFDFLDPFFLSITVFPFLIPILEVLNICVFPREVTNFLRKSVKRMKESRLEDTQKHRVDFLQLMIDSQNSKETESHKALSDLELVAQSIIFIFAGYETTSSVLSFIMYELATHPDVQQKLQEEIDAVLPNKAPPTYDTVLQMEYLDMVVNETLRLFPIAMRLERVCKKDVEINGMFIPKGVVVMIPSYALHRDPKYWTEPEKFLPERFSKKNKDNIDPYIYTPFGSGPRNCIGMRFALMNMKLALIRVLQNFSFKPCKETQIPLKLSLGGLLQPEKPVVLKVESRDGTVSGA
A short description of series [17]: Depletion of inhibitors in human primary hepatocyte suspension (LC-MS/MS). The conditions noted are these: human, cryopreserved primary human hepatocytes in suspension; for CLint scaled at 10 µM: intrinsic clearance from primary human hepatocytes scaled to whole liver/body weight.
Series [18] relates to human primary hepatocytes. The description is as above. The conditions noted are these: for Parent compound retained at the 120-min sampling point / Sampling interval at which significant depletion was first observed: primary human hepatocytes, 10 µM; for Parent compound retained at the 120-min sampling point: % of 0-min concentration, mean ± S.E.M.; for Sampling interval at which significant depletion was first observed: sampling 0-120 min.

The subject of series [19] is H9N2. The conditions noted are these: MDCK-II cells, 20 μM and 50 μM; cited from earlier work.
In series [20] the target is T1, CYP1A2. The series can be described thus: Fluorometric CYP1A2 activity assay in human hepatic microsomes. Particulars: human liver microsomes, protease inhibitors at 50 µM, 15 min 37 °C.
Series [21] deals with T2, CYP2C9. Kind of series: Fluorometric CYP2C9 activity assay in human hepatic microsomes. The conditions noted are these: human liver microsomes, protease inhibitors at 50 µM, 15 min 37 °C.
Series [22] concerns the target T4, CYP2D6. The series can be described thus: Fluorometric CYP2D6 activity assay in human hepatic microsomes. The conditions noted are these: human liver microsomes; for Inhibition of CYP2D6 activity: protease inhibitors at 50 µM, 15 min 37 °C.
The target of series [23] is T3, CYP2C19. Kind of series: Fluorometric CYP2C19 activity assay in human hepatic microsomes. The conditions noted are these: human liver microsomes, protease inhibitors at 50 µM, 15 min 37 °C.

T2 sequence (P11712 whole entry): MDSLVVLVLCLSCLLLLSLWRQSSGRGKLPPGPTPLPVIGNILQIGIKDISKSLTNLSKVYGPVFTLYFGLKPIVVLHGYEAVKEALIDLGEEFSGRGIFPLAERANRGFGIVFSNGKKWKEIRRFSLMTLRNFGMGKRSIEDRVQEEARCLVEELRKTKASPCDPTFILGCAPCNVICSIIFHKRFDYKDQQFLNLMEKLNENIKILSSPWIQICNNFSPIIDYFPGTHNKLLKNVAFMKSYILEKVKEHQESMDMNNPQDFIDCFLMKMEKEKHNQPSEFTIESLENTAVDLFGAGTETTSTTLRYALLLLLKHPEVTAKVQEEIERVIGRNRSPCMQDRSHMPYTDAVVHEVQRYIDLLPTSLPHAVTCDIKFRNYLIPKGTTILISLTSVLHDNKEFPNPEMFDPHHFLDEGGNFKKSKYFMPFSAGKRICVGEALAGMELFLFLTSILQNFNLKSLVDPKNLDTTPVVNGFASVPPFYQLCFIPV

`COc1ccc(-c2cccc(S(=O)(=O)N[C@@H](Cc3cccc(C(=N)N)c3)C(=O)N3CCC(NC(=O)NC4CCCCC4)CC3)c2)c(OC)c1` [MI-463]: in [1], the “Classification (extraction type)” value is on record as “Intermediate”; the “Extraction ratio EH” value is on record as 0.37; the “Predicted Cl, CLH” value is 7.60. Besides, the “H9N2 viral spread / formation of viral foci” value (“H9N2 viral spread / formation” for short) in [2] (MOI 0.01, 20 µM) is “marked reduction of viral spread”. In series [2] (MOI 0.01, 50 µM), the “H9N2 viral spread / formation” value is reported as “fully prevented formation of viral foci; also recorded: fully preventing the formation of H9N2 viral foci”. The “Reduction of H9N2 viral titers compared to untreated controls” value (from here on “Reduction of H9N2 viral titers”) in series [3] (20 µM, 24 h) is “approximately 1.4 log”. Further, in series [3] (20 µM, 48 h), the “Reduction of H9N2 viral titers” value stood at 2.1 logs. The “Reduction of H9N2 viral titers” value in series [3] (50 µM, 24 h) was ~1.8 log. The “Reduction of H9N2 viral titers” value in [3] (50 µM, 48 h) came out at 2.6 logs. Moreover, in series [4], the “Reduction of H1N1 viral titers” value is reported as 0.95–1.34 logs. Besides, the “Cytotoxicity in primary human hepatocytes” value in series [5] was “No significant differences in cell viabilities; also recorded: lack of cytotoxicity”. The “Inhibition of CYP1A2 activity” value in [6] is on record as “No significant CYP inhibitory potential”. Further, the “Inhibition of CYP2C9 activity” value in [7] was “No significant CYP inhibitory potential”. In addition, in series [8], the “Inhibition of CYP2C19 activity” value is listed as “No significant CYP inhibitory potential”. For the same molecule, the “Inhibition of CYP2D6 activity” value in series [9] was “No significant CYP inhibitory potential”. In series [10], the Ki is 4 nM. The Ki in series [11] was 3 nM. In [12], the “Inhibition of monkey CYP1A2” value is “significant inhibition”. The “Inhibition of rat CYP1A2” value in series [13] is “significant inhibition”. Besides, the “Inhibition of beagle dog CYP1A2” value in [14] was “no significant inhibition”. Moreover, in series [15], the “Treatment time after which significant conversion was seen” value was 60 to 120 min. In addition, in series [16], the “Effect on CYP3A4 enzyme activity” value is “significant inhibitory effect” and the “Effect on CYP3A4 enzyme activity at the lowest applied concentration” value is given as “potent inhibitors”. In series [17], this molecule yielded a half-life at 10 µM of 3.57 h and a CLint scaled at 10 µM of 1.28 L/h/kg. Moreover, in [18], the “Parent compound retained at the 120-min sampling point” value (“Parent compound retained” for short) was 66.7 ± 5.5% and 66.7%; the “Sampling interval at which significant depletion was first observed” value is listed as 30 min.

Regarding `COc1ccc(-c2cccc(S(=O)(=O)N[C@@H](Cc3cccc(C(=N)N)c3)C(=O)N3CCC(NC(=O)NC(C)(C)C)CC3)c2)c(OC)c1` [MI-485], in series [1], the “Classification (extraction type)” value is “Intermediate”; the “Extraction ratio EH” value is on record as 0.39; the “Predicted Cl, CLH” value is 8.17. Moreover, the “Treatment time after which significant conversion was seen” value in [15] was 60 to 120 min. Also, the “Effect on H9N2 virus propagation” value in series [19] was “most pronounced reduction”. For the same molecule, in [20], the “Inhibition of CYP1A2 activity” value is listed as “No significant CYP inhibitory potential”. In addition, in series [21], the “Inhibition of CYP2C9 activity” value is “No significant CYP inhibitory potential”. Also, the “Inhibition of CYP2D6 activity” value in [22] is “No significant CYP inhibitory potential”. For the same molecule, in [16], the “Effect on CYP3A4 enzyme activity” value is recorded as “significant inhibitory effect” and the “Effect on CYP3A4 enzyme activity at the lowest applied concentration” value is on record as “potent inhibitors”. For the same molecule, in series [23], the “Inhibition of CYP2C19 activity” value is “No significant CYP inhibitory potential”. In [17], this molecule returned a half-life at 10 µM of 2.86 h and a CLint scaled at 10 µM of 1.6 L/h/kg. In series [18], the “Parent compound retained” value is reported as 64.9 ± 5.3% and the “Sampling interval at which significant depletion was first observed” value is given as 30 min.

Turning to `CC(C)(C)NC(=O)NC1CCN(C(=O)[C@H](Cc2cccc(C(=N)N)c2)NS(=O)(=O)c2cccc(-c3ccc(CO)cc3)c2)CC1` [MI-1903], in series [1], the “Classification (extraction type)” value was “Intermediate”; the “Extraction ratio EH” value is reported as 0.51; the “Predicted Cl, CLH” value is 10.56. Further, the “H9N2 viral spread / formation” value in [2] (MOI 0.01, 50 µM) was “only slightly reduced formation of viral foci”. Besides, in series [20], the “Inhibition of CYP1A2 activity” value is reported as “No significant CYP inhibitory potential”. The “Inhibition of CYP2C9 activity” value in [21] is “No significant CYP inhibitory potential”. Also, the “Inhibition of CYP2D6 activity” value in series [22] was “No significant CYP inhibitory potential”. Moreover, the “Effect on CYP3A4 enzyme activity” value in series [16] is given as “significant inhibitory effect”. In addition, the “Inhibition of CYP2C19 activity” value in series [23] is recorded as “No significant CYP inhibitory potential”. In [17], this molecule displayed a half-life at 10 µM of 0.753 h and a CLint scaled at 10 µM of 6.06 L/h/kg. The molecule further displayed a CLint in series [18] (intrinsic clearance from primary human hepatocytes scaled to whole liver/body weight) of 6.0618 L/h/kg. Also, in series [18], the “Parent compound retained” value turned out to be 38.6 ± 5.5% and the “Sampling interval at which significant depletion was first observed” value was found to be 30 min.

Turning to `CC(C)(C)NC(=O)NC1CCN(C(=O)[C@H](Cc2cccc(C(=N)N)c2)NS(=O)(=O)c2cccc(-c3ccc(CO)c(F)c3)c2)CC1` [MI-1904], in series [1], the “Classification (extraction type)” value is “Intermediate”; the “Extraction ratio EH” value is listed as 0.35; the “Predicted Cl, CLH” value is 7.29. The “Effect on H9N2 virus propagation” value in series [19] is reported as “most pronounced reduction”. In addition, the “Inhibition of CYP1A2 activity” value in series [20] is recorded as “No significant CYP inhibitory potential”. The “Inhibition of CYP2C9 activity” value in series [21] is given as “No significant CYP inhibitory potential”. The “Inhibition of CYP2D6 activity” value in series [22] is “No significant CYP inhibitory potential”. The “Effect on CYP3A4 enzyme activity” value in series [16] is recorded as “significant inhibitory effect”. Moreover, in [23], the “Inhibition of CYP2C19 activity” value is reported as “No significant CYP inhibitory potential”. In [17], this molecule had a half-life at 10 µM of 3.99 h and an intrinsic clearance (CLint scaled) at 10 µM of 1.15 L/h/kg. Also, in series [18], the “Parent compound retained” value was 70.8 ± 8.6% and the “Sampling interval at which significant depletion was first observed” value was 120 min.

On to `C=C[C@H]1C[N@@]2CC[C@H]1C[C@@H]2[C@@H](O)c1ccnc2ccc(OC)cc12` [quinidine, reference compound], for which the “Inhibition of CYP2D6 activity by reference inhibitor” value in series [22] (3 µM, p < 0.001) is “significantly suppressed”.
